Calls of active or inactive are those of the source.
Assays:
Protein RecA [1] = biological target: T1, Protein RecA (Mycobacterium tuberculosis, UniProt P9WHJ3); test: GFP-RecA MOA-DTT Measured in Biochemical System Using Plate Reader - 2047-05_Inhibitor_Dose_DryPowder_Activity. [Related pubchem assays (depositor defined):AID2223]; parameters: species or system Mycobacterium tuberculosis H37Rv
T1 sequence (P9WHJ3 whole entry): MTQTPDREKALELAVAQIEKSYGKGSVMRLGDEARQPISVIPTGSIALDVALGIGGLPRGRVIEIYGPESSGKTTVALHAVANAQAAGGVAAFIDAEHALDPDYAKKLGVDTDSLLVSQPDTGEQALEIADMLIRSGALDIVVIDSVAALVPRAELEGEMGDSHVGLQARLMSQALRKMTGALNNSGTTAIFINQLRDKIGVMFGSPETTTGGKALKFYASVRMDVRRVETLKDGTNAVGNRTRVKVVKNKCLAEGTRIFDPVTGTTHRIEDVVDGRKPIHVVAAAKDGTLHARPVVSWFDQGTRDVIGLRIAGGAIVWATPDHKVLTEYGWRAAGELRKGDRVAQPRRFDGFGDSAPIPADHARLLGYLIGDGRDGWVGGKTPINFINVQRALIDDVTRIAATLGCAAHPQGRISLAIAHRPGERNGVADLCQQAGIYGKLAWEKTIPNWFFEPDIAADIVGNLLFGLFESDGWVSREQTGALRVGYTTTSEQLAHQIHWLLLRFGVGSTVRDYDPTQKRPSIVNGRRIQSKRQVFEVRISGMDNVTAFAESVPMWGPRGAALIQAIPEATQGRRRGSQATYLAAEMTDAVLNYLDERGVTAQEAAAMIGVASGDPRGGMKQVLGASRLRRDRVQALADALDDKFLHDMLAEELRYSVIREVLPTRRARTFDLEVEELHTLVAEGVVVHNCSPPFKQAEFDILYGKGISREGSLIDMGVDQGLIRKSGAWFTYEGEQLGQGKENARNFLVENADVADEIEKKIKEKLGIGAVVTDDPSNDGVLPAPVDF

[2] = biological target: T2, Replicative DNA helicase DnaB (Mycobacterium tuberculosis, UniProt P9WMR3); test: DnaB Intein secondary assay Measured in Biochemical System Using Plate Reader - 2047-04_Inhibitor_Dose_DryPowder_Activity. [Related pubchem assays (depositor defined):AID2223]
T2 sequence (P9WMR3 whole entry): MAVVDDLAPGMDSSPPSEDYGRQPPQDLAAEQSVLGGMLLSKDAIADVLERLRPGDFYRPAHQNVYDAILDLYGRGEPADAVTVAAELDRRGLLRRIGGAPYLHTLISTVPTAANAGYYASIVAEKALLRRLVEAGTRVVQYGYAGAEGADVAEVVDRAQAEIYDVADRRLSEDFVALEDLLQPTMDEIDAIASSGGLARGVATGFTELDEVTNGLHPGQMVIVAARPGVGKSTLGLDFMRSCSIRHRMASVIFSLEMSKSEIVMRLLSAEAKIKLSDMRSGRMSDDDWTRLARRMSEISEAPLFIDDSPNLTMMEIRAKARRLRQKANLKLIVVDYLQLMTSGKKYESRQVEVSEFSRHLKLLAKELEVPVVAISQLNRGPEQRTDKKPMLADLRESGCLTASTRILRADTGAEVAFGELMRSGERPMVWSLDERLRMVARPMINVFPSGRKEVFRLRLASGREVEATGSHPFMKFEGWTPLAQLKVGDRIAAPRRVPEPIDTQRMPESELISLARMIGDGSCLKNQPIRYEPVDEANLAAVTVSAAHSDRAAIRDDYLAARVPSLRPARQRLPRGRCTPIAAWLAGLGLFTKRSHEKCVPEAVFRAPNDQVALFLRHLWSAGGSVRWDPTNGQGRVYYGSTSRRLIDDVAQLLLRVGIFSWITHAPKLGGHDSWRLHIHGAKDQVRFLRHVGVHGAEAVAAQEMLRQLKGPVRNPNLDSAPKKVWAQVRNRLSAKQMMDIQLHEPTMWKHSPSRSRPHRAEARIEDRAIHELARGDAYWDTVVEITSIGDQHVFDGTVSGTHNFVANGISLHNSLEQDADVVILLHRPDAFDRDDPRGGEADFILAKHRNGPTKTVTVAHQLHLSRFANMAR

Protein RecA [3] = biological target: T1, Protein RecA; test: RecA Intein Measured in Biochemical System Using Plate Reader - 2047-02_Inhibitor_Dose_DryPowder_Activity. [Related pubchem assays (depositor defined):AID2223]; parameters: species or system Mycobacterium tuberculosis H37Rv
[4] = biological target: Glyceraldehyde-3-phosphate dehydrogenase (Homo sapiens, UniProt P04406)
[5] = biological target: Alkaline phosphatase, placental type (Homo sapiens, UniProt P05187); test: PLAP enzyme inhibitors, confirmation, biochemical, luminescence (AID 1512); type: functional
Chain of Alkaline phosphatase, placental type (P05187 whole entry): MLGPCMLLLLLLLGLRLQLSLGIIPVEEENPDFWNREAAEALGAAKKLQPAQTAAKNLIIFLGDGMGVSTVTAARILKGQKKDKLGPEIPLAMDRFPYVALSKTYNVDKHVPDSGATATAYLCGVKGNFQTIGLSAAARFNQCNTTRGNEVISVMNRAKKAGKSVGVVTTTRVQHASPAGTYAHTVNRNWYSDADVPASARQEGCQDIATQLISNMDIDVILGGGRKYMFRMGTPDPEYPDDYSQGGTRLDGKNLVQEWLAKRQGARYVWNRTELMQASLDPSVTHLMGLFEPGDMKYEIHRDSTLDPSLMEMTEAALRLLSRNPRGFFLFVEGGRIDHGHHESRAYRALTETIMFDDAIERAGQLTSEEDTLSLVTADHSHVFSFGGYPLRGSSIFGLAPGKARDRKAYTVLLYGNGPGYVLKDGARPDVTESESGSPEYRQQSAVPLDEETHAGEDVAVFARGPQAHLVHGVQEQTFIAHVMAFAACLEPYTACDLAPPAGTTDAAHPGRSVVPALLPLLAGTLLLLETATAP

[6] = biological target: T3, Alkaline phosphatase, tissue-nonspecific isozyme (Homo sapiens, UniProt P05186); test: human TNAP enzyme inhibitors, SAR follow-up, biochemical, luminescent, dose response (AID 1056)
T3 sequence (P05186 whole entry): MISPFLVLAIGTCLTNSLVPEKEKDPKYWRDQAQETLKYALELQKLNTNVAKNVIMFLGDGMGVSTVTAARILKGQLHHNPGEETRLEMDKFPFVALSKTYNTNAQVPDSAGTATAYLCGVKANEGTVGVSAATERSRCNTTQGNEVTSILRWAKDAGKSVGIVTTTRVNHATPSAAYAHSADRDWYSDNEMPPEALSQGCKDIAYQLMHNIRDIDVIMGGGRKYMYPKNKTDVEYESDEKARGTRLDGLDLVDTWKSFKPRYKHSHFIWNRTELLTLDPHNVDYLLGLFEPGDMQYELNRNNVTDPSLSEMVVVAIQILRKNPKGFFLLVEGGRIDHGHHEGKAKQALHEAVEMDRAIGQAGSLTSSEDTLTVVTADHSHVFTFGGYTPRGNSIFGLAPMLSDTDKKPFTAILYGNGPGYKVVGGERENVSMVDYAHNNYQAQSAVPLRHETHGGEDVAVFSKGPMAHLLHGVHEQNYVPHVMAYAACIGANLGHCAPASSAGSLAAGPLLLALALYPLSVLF

[7] = biological target: T4, Kappa-type opioid receptor (Homo sapiens, UniProt P41145); test: KOR agonist analogs, arrestin-GFP redistribution, SAR follow-up, imaging, image-based, set 3 (AID 488833); type: functional
T4 sequence (P41145 whole entry): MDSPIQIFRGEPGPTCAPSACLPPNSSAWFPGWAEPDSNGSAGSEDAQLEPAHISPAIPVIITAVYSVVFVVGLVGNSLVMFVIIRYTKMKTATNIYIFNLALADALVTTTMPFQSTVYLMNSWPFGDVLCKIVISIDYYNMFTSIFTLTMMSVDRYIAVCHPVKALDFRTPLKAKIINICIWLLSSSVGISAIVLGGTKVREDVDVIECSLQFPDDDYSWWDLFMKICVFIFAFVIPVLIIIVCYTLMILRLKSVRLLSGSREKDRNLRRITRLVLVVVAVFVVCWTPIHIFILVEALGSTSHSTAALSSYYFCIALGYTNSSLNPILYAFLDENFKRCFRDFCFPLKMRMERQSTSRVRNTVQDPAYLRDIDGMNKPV

Mu-type opioid receptor = Mu-type opioid receptor (Homo sapiens, UniProt P35372); test: SAR Analysis of Agonists of the MOR Receptor using an Image-Based Assay - Set 3. [Related pubchem assays (depositor defined):AID1777, AID1785, AID1786, AID1966, AID2133, AID2136, AID2284, AID2285, AID2352]; type: functional
[8] = biological target: Delta-type opioid receptor (Homo sapiens, UniProt P41143); test: SAR Analysis of Agonists of the DOR Receptor using an Image-Based Assay - Set 3. [Related pubchem assays (depositor defined):AID1777, AID1786]; type: functional
[9] = biological target: T4, Kappa-type opioid receptor; test: SAR analysis of small molecule agonists of the kappa opioid receptor via a luminescent beta-arrestin assay - Set 3. [Related pubchem assays (depositor defined):AID1777, AID1785, AID1786, AID1966, AID2133, AID2136, AID2284, AID2500]; type: functional
[10] = biological target: Voltage-dependent T-type calcium channel subunit alpha-1H (Homo sapiens, UniProt O95180); test: Cav3.2 T-type channel inhibitors, cell-based, synthetic library set 1, calcium flux (AID 493022); type: functional
[11] = biological target: T5, Voltage-gated N-type calcium channel alpha-1B subunit/Amyloid beta A4 precursor protein-binding family A member 1 (Homo sapiens, UniProt Q00975+Q02410); type: protein assay
T5 sequence (Q00975 whole entry): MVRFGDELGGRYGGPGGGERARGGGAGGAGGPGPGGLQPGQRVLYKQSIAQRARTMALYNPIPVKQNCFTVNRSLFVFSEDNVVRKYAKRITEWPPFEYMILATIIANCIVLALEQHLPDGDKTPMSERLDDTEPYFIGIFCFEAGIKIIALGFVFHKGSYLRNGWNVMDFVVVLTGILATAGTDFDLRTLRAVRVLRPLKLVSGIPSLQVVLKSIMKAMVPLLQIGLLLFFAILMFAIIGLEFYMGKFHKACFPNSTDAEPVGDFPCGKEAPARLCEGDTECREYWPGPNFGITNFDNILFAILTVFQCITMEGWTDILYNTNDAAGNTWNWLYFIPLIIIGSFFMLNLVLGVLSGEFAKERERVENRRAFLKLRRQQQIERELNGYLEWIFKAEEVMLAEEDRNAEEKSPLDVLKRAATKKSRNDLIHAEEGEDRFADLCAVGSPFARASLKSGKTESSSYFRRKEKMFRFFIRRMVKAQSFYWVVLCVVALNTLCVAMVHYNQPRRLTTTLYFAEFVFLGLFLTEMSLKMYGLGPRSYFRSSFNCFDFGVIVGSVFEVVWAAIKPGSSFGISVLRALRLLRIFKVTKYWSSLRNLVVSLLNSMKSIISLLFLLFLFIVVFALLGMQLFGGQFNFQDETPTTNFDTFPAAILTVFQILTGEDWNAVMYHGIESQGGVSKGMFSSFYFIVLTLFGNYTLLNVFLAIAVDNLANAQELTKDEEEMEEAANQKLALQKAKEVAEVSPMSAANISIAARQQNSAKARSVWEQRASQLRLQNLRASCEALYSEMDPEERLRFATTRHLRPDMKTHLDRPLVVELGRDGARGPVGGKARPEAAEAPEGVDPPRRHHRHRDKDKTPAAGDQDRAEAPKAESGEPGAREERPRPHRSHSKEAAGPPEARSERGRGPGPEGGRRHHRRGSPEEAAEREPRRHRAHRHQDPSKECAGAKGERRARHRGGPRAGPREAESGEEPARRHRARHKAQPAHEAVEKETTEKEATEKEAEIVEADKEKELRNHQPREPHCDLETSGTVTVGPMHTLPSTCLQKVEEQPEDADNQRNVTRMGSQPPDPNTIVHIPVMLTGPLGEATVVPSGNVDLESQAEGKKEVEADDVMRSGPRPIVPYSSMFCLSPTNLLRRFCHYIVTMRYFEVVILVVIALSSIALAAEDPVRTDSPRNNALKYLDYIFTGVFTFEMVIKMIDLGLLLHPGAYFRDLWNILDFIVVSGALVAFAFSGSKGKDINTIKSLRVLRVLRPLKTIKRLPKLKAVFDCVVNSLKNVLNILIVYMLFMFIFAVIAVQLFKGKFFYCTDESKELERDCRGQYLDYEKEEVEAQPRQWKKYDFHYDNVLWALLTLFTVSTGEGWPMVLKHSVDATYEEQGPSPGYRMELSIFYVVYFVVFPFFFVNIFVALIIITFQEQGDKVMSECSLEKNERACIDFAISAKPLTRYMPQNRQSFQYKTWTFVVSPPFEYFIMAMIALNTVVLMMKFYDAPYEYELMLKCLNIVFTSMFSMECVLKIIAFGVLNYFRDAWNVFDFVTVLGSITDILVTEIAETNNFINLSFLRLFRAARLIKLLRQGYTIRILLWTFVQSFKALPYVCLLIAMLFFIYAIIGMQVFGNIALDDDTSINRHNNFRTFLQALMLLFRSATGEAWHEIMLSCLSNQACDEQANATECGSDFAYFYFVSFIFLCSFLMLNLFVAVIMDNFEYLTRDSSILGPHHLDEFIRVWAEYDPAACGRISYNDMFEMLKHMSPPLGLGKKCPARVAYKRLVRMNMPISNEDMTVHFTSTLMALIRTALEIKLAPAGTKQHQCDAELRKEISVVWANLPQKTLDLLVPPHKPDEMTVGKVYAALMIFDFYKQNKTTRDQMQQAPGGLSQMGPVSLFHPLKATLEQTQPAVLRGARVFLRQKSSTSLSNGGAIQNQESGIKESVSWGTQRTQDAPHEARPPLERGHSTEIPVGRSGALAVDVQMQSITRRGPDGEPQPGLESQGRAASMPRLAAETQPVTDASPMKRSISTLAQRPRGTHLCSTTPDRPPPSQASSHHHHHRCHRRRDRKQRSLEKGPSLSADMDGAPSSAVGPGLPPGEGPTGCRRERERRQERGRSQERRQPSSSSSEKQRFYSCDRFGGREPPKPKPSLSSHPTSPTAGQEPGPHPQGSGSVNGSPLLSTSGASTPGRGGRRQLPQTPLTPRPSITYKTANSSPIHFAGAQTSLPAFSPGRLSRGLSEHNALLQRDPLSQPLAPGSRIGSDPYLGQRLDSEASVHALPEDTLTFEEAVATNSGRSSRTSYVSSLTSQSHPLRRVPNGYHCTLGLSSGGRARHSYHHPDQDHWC
T5 sequence (Q02410 whole entry): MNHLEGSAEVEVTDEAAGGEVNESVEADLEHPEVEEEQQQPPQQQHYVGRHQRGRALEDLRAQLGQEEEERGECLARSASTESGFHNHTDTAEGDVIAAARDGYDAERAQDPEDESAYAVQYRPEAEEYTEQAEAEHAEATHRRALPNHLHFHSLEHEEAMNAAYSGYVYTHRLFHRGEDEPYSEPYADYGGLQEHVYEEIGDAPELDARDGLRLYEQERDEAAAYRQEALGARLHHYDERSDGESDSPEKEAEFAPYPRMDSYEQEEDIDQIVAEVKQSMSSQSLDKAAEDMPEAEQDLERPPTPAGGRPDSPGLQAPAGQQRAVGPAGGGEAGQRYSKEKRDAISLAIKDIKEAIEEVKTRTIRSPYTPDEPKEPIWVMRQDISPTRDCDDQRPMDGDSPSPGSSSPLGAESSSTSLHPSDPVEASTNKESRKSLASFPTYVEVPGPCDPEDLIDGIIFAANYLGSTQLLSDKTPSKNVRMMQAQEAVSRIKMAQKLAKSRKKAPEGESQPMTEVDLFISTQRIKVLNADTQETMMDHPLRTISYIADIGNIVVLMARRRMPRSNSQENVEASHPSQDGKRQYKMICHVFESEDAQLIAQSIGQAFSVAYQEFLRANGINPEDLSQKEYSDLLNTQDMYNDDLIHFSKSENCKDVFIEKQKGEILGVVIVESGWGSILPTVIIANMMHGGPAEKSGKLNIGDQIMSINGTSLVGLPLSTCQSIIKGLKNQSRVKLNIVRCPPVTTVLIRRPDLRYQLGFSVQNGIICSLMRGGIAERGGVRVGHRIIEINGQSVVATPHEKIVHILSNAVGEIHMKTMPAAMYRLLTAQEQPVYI

Large T antigen = Large T antigen (Simian virus 40, UniProt P03070); type: functional, Betapolyomavirus macacae;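 also: Confirmatory-stage PubChem screen for compounds that inhibit SV40 T antigen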
[12] = biological target: T5, Voltage-gated N-type calcium channel alpha-1B subunit/Amyloid beta A4 precursor protein-binding family A member 1; type: protein assay; remark: listed apart in the source
[13] = biological target: Glucose-6-phosphate 1-dehydrogenase (Homo sapiens, UniProt P11413); test: human G6PD enzyme inhibitors, dose response, selectivity assay for P. falciparum G6PD inhibitor project, biochemical, fluorescence (AID 504792); type: functional
Chain of Glucose-6-phosphate 1-dehydrogenase (P11413 whole entry, the tested form may be a part): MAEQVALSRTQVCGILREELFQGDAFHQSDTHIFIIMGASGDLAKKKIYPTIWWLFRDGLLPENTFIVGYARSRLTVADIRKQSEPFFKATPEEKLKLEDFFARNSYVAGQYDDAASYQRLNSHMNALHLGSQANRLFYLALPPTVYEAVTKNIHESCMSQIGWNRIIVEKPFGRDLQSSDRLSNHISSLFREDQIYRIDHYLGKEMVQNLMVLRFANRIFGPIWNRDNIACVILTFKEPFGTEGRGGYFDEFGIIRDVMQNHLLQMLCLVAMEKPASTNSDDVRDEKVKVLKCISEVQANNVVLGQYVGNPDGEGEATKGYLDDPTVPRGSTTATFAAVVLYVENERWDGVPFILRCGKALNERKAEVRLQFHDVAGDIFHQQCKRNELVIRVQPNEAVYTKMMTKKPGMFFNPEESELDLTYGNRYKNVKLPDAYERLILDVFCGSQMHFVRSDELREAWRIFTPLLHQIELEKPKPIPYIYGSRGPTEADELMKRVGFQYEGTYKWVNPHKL

[14] = Fluorescence-based cell-based high throughput dose response assay for inhibitors of the interaction of nucleotide-binding oligomerization domain containing 2 (NOD2) and the receptor-interacting serine-threonine kinase 2 (RIPK2).; type: functional; conditions: Homo sapiens
Beta Lactamase = Beta Lactamase (Pseudomonas aeruginosa, UniProt Q932Y6); test: beta-lactamase reporter inhibitor potency, dose response, artefact control for NOD2-RIPK2 interaction inhibitor project, BLA reporter cells, FRET fluorescence (AID 651552); type: functional, cell-based
Chain of Beta Lactamase (Q932Y6 whole entry): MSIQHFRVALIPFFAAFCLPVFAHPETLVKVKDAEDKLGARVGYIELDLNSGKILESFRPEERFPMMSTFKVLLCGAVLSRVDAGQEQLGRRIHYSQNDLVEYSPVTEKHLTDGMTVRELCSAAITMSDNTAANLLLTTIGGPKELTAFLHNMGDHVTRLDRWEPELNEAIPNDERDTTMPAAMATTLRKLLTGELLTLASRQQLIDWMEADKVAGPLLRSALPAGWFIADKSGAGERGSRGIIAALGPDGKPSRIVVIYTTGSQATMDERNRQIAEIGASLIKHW

Cc1oc2c(c1C(=O)NCc1ccccn1)C(=O)c1ccccc1C2=O
AC50 (Protein RecA [1]): 9.92 µM (active)
AC50 [2]: 1.07 µM (active)
AC50 (Protein RecA [3]): 0.074 µM (active)

CC(C)(C)NC(=O)c1cc(-c2cc(F)c(Cl)cc2Cl)n[nH]1
IC50 [4]: > 100 µM (not active)
IC50 [5]: > 100 µM (inactive)
IC50 [6]: 1.08 µM (active)

N#Cc1ccc(CSc2nnc(-c3ccccn3)n2Cc2ccco2)cc1
EC50 [7]: 19.3 µM (inactive)
EC50 (Mu-type opioid receptor): > 32 µM (inactive)
EC50 [8]: > 64 µM (inactive)
EC50 [9]: 6.79 µM (active)

O=C(COc1ccc(F)c(Cl)c1)Nc1nnc(-c2ccc3c(c2)CCCC3)o1
EC50 [10]: 2.4 µM (active)

N#C/C(C(=O)Nc1ccc(Cl)cc1)=C(/S)Nc1ccccc1
IC50 [11]: 25.5 µM (active)
IC50 (Large T antigen): 16.5 µM (active)
IC50 [12]: 13.9 µM (active)
IC50 [13]: 52 µM (inactive)
IC50 [14]: 19.6 µM (inactive)
IC50 (Beta Lactamase): 49.8 µM (inactive)

— ChEMBL document CHEMBL1201862, “PubChem BioAssay data set” (2004)
